Test results from patent publication US10703736B2, “Configurational stereoisomer of bromadiolone, composition and rodenticide bait comprising same, and method for controlling target rodent pests” (priority 2015, dated 2020).
Entries after “also recorded” stand apart in the source; their conditions may differ.

Experiments:
[1] = format: in vivo, rat; conditions: Sprague-Dawley rats, mixture D1,2 56% / D3,4 44%, about 13 mg bromadiolone per kg per os, liver on D1, D3, D7; FIG. 2
Method: (§1) About 0.525 g (+0.025 g) of rat liver is weighed out accurately and placed in a 50 mL polypropylene tube. 10 mL of acetone are added and the suspension is homogenized using an Ultra-Turrax® homogenizer/disperser for a time of about 30 seconds. The homogenizer/disperser shaft is rinsed with hot water and then twice with 20 mL of acetone in a polypropylene tube. The homogenate is centrifuged for 5 minutes at a centrifugation speed of 3000 rpm (revolutions per minute). The supernatant is collected and transferred into a test tube. The sample is subjected to evaporation under a stream of nitrogen (N2) at a temperature of 40° C. so as to form a dry extract.
(§2) 1 mL of acetonitrile is added to the tube containing the dry extract so as to dissolve it. The acetonitrile solution is washed twice successively with 1 mL of hexane. […]
On D1 (D+1), D3 (D+3) and D7 (D+7) after tube feeding, four rats anaesthetized beforehand with isoflurane are euthanized, the liver of the euthanized rats is removed, the bromadiolone is then extracted from the liver and the amount of each of the configurational stereoisomers of bromadiolone is assayed by high-pressure liquid chromatography analysis on a chiral column as described above. The area under the peaks of the chromatogram obtained is measured and each configurational stereoisomer of bromadiolone is quantified by comparison with a calibration curve.

[2] = Hepatic persistence of each configurational stereoisomer in rats tube-fed with a single stereoisomer; format: in vivo, rat; conditions: liver of rats tube-fed with the single enantiomer at 1.5 mg per kilogram; FIG. 4
Method: as §1, §2
The liver of the rats treated above is removed for the purposes of comparative analysis of the anticoagulant power of the configurational stereoisomers of bromadiolone, the bromadiolone is then extracted from the liver and the amount of each of the configurational stereoisomers of bromadiolone is assayed by high-pressure liquid chromatography analysis on a chiral column as described above. The area under the peaks of the chromatogram obtained is measured and each configurational stereoisomer of bromadiolone is quantified by comparison with a calibration curve. […]

[3] = test system: male laboratory rats (OFA, Sprague-Dawley 200 g); assay: Anticoagulant power of each configurational stereoisomer: coagulation time (Quick time) of plasma of tube-fed rats; format: in vivo; conditions: 1.5 mg of enantiomer per kilogram of rat by tube feeding on D0; blood on D1, D3, D7, D14; FIG. 3
Method: The following are administered to male laboratory rats (OFA, Sprague-Dawley 200 g) by tube feeding on D0: a composition comprising enantiomer E1 in a proportion of 1.5 mg of said enantiomer E1 per kilogram of rat; or a composition comprising enantiomer E2 in a proportion of 1.5 mg of said enantiomer E2 per kilogram of rat; or a composition comprising enantiomer E3 in a proportion of 1.5 mg of said enantiomer E3 per kilogram of rat; or a composition comprising enantiomer E4 in a proportion of 1.5 mg of said enantiomer E4 per kilogram of rat.
On these rats, blood is collected on D1, D3, D7 and D14 and measurement of the coagulation time (Quick time, expressed in seconds) of the plasma is performed using the “Neoplastine CI Determination of Prothrombin Time” kit (Diagnostica Stago, Asnibre, France) by measurement on a Thrombotimer Option 2 Plus machine (Behnk Electronik, Norderstedt, Germany).

Structure (SMILES)	persistence in rat liver (hepatic concentration) [1]	hepatic persistence of each enantiomer [2]	anticoagulant effect / anticoagulant activity (coagulation time, Quick time) [3]
O=c1oc2ccccc2c(O)c1C(CC(O)c1ccc(-c2ccc(Br)cc2)cc1)c1ccccc1 (single isomer, unassigned) [diastereoisomer D1,2, 3-[3-(4′-bromo[1,1′-biphenyl]-4-yl)-3-hydroxy-1-phenylpropyl]-4-hydroxy-2H-1-benzopyran-2-one]	the more persistent in the liver of target rodents		
O=c1oc2ccccc2c(O)c1C(CC(O)c1ccc(-c2ccc(Br)cc2)cc1)c1ccccc1 (single isomer, unassigned) [enantiomer E1, 3-[3-(4′-bromo[1,1′-biphenyl]-4-yl)-3-hydroxy-1-phenylpropyl]-4-hydroxy-2H-1-benzopyran-2-one]	longest persistence in rat liver of the four enantiomers	highest hepatic persistence among the bromadiolone enantiomers; also recorded: higher than the persistence in the liver of target rodent pests of said enantiomer E2 and higher than the persistence in the liver of target rodent pests of each enantiomer of said diastereoisomer D3,4	sufficient to maintain an anticoagulant effect up to D7; also recorded: higher anticoagulant activity than the anticoagulant activity of said enantiomer E2 and also higher than the anticoagulant activities of said two enantiomers of said diastereoisomer D3,4
